46 molecules from ChEMBL document CHEMBL1157574 (J Med Chem, 2010) can be followed below.

pIC50: −log10 of the molar value.

Usually pIC50 stands for the negative decadic logarithm of the IC50, by convention in mol/L. A high value points to a small IC50. One may read the inhibition as the drop in the measured response relative to a control, in per cent. The low end stands for a weak effect, the high end for a strong effect. A word on the inhibition in vivo: it is the change of the read-out against control, counted positive when it falls.

Data set [1] has as its target T1, Aromatase (Homo sapiens, UniProt P11511).
T1 sequence (P11511 whole entry): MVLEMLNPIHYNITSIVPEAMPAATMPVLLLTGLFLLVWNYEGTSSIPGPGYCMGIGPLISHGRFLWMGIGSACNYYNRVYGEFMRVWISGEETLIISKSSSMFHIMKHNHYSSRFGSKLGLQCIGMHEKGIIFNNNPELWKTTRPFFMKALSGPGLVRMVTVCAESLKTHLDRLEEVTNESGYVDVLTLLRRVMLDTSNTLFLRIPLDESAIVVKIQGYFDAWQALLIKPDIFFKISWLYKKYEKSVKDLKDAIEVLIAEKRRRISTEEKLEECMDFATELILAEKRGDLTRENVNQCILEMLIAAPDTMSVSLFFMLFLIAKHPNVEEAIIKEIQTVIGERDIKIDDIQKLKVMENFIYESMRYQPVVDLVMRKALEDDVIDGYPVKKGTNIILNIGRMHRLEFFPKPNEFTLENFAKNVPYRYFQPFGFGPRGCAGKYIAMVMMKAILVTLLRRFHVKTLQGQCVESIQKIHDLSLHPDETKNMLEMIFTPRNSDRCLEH
Description: Inhibition of aromatase in human JEG3 cells by scintillation spectrometry

A further data set addresses T2, Steryl-sulfatase (Homo sapiens, UniProt P08842).
T2 sequence (P08842 whole entry): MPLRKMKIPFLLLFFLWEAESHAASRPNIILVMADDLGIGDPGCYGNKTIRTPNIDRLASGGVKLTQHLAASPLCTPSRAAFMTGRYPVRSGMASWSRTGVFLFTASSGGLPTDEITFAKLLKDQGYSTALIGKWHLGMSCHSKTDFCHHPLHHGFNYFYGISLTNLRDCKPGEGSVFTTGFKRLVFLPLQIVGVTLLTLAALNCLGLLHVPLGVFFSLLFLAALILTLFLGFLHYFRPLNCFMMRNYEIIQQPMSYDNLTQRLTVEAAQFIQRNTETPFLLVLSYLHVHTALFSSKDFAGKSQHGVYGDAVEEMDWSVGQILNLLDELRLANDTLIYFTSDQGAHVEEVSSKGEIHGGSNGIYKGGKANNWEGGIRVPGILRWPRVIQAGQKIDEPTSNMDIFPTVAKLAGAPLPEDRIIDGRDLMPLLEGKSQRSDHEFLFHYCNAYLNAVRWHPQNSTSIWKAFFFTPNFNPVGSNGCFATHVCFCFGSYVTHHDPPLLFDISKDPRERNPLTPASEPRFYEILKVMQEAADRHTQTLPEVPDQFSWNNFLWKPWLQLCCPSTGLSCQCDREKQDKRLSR
The data set can be described thus: Inhibition of steroid sulfatase in human JEG3 cells by scintillation spectrometry. Type of data set: cell-based, JEG-3.

Data set [2] has as its target T1, Aromatase. The data set can be described thus: Inhibition of aromatase in human JEG3 cells at 1 uM by scintillation spectrometry. It counts as cell-based, JEG-3. Particulars: for inhibition (INH): human, jeg-3, 1 µM.
In data set [3] the target is T1, Aromatase. Kind of data set: Inhibition of aromatase in human JEG3 cells at 0.1 uM by scintillation spectrometry. It counts as cell-based. Particulars: JEG-3, human.
Data set [4] concerns Rattus norvegicus. The data set can be described thus: Inhibition of aromatase in Wistar rat assessed as inhibition of PMSG-induced plasma E2 level at 0.1 mg/kg, po administered after 3 days of PMSG challenge by radioimmunoassay. It counts as functional.
The subject of data set [5] is Rattus norvegicus. Kind of data set: Inhibition of steroid sulfatase in PMSG-pretreated Wistar rat liver at 0.1 mg/kg, po administered after 3 days of PMSG challenge by liquid scintillation spectrometry.
Data set [6] concerns Rattus norvegicus. Kind of data set: Inhibition of aromatase in PMSG-pretreated Wistar rat plasma at 0.1 mg/kg, po administered after 3 days of PMSG challenge by radioimmunoassay. It counts as functional.
Data set [7] concerns Rattus norvegicus. Kind of data set: Inhibition of aromatase in PMSG-pretreated Wistar rat at 1 mg/kg, po administered after 3 days of PMSG challenge by radioimmunoassay.
For data set [8], the system named is Rattus norvegicus. Kind of data set: Estrogenic toxicity in Wistar rat assessed as increase in uterine weight at 10 mg/kg, po for 4 days. Type of data set: organism-based. As to conditions: in vivo, 96 h. Also on record: dose 10 mg/kg, route oral.
For data set [9], the system named is Rattus norvegicus. Kind of data set: Inhibition of aromatase in Wistar rat assessed as inhibition of PMSG-induced plasma E2 level at 1 mg/kg, po administered after 3 days of PMSG challenge by radioimmunoassay. Type of data set: functional.
The subject of data set [10] is Rattus norvegicus. Kind of data set: Inhibition of steroid sulfatase in PMSG-pretreated Wistar rat at 1 mg/kg, po administered after 3 days of PMSG challenge by liquid scintillation spectrometry. Type of data set: functional.
Data set [11] addresses T1, Aromatase. Kind of data set: Inhibition of aromatase in human JEG3 cells at 10 uM by scintillation spectrometry. Type of data set: cell-based. As to conditions: JEG-3, human.
The target in data set [12] is T3, Steryl-sulfatase (Homo sapiens) (UniProt P08842).
T3 sequence (whole entry): T2 sequence (P08842 whole entry)
The data set can be described thus: Inhibition of steroid sulfatase in human JEG3 cells at 10 uM by scintillation spectrometry. It counts as cell-based. As to conditions: JEG-3.

Turning to `CN(C)S(=O)(=O)Oc1ccc(-c2cc(Cn3cncn3)ccc2C#N)cc1Cl`, the figures for the negative-log IC50 (pIC50) against Aromatase [1] and against Steryl-sulfatase were 8.62 and under 5.00, respectively. The corresponding values for `N#Cc1ccc(-c2ccc(OS(N)(=O)=O)c(Cl)c2)cc1Cn1cncn1` are 6.84 and 7.49. Take `N#Cc1cc(Cn2cncn2)ccc1-c1ccc(OS(N)(=O)=O)cc1`: the pIC50 is 6.55 against Aromatase [1] and 7.54 against Steryl-sulfatase.

For the molecule `Oc1ccc(-c2cccc(Cn3cncn3)c2)cc1Cl`, the inhibition (INH) at Aromatase [2] was 85.3%. At Aromatase [3], 0.1 µM produced 36.6% inhibition. `N#Cc1ccc(-c2cccc(O)c2)cc1Cn1cncn1`: the pIC50 against Aromatase [1] was 7.84.

With `N#Cc1ccc(Cn2cncn2)cc1-c1cccc(Cl)c1`, on Aromatase [1], the pIC50 was 9.66.

Regarding `N#Cc1ccc(-c2ccc(O)c(Cl)c2)cc1Cn1cncn1`, on Aromatase [1], the negative logarithm of the IC50 (pIC50) was 7.13. On Aromatase [1], `CC(C)(C#N)c1cc(Cn2cncn2)cc(-c2ccc(O)cc2)c1` gave a pIC50 of 8.22.

Take `N#Cc1ccc(C(c2ccc(C#N)cc2)n2cncn2)cc1` [LETROZOLE]: the Activity in the data set on Rattus norvegicus [4] is 49 pg/mL. The inhibition in vivo at 0.1 mg/kg in the data set with Rattus norvegicus [5] was determined as 0%; with Rattus norvegicus [6], 85%. Take `N#Cc1ccc(Cn2cncn2)cc1-c1ccc(Cl)c(OS(N)(=O)=O)c1`: the pIC50 against Aromatase [1] was 9.46; at Steryl-sulfatase, under 5.00. `N#Cc1ccc(-c2cc(C#N)cc(Cn3cncn3)c2)cc1`: the pIC50 on Aromatase [1] was 7.28.

Turning to `N#Cc1ccc(Cn2cncn2)cc1-c1ccc(OS(N)(=O)=O)c(Cl)c1`, the inhibition in vivo at 1 mg/kg stood at 60% with Rattus norvegicus [7] and 92% with Rattus norvegicus [10]. The Activity result in the data set on Rattus norvegicus [8] is “Non-toxic”. This molecule showed a pIC50 at Steryl-sulfatase of 8.26. Besides, the “plasma estradiol (E2) level” value in the data set with Rattus norvegicus [9] worked out at 132 pg/mL. `N#Cc1cc(Cn2cncn2)cc(-c2ccc(F)cc2)c1` showed a negative-log IC50 (pIC50) against Aromatase [1] of 7.72. As to `N#Cc1ccc(Cn2cncn2)cc1-c1ccc(Cl)c(O)c1`, the pIC50 on Aromatase [1] was 9.66.

Take `N#Cc1cc(Cn2cncn2)cc(-c2ccc(OS(N)(=O)=O)cc2)c1`: the pIC50 was 6.55 against Aromatase [1] and under 5.00 at Steryl-sulfatase.

In turn, `N#Cc1cc(Cn2cncn2)cc(-c2ccc(O)cc2)c1` gave a pIC50 against Aromatase [1] of 6.95. For `CN(C)S(=O)(=O)Oc1ccc(-c2cc(Cn3cncn3)ccc2C#N)cc1`, the pIC50 against Aromatase [1] is 9.30; at Steryl-sulfatase it was under 5.00.

In the case of `N#Cc1ccc(Cn2cncn2)cc1-c1ccc(O)cc1`, the pIC50 at Aromatase [1] was 9.70. Moreover, the inhibition in vivo at 1 mg/kg with Rattus norvegicus [7] is 72%; with Rattus norvegicus [10] it was 10%. For the same molecule, the “plasma estradiol (E2) level” value in the data set on Rattus norvegicus [9] came out at 94 pg/mL. Take `N#Cc1cc(Cn2cncn2)cc(-c2ccc(OS(N)(=O)=O)c(Cl)c2)c1`: the results for the pIC50 against Aromatase [1] and against Steryl-sulfatase were 7.10 and 5.20, respectively. Take `N#Cc1cc(Cn2cncn2)ccc1-c1ccc(O)c(Cl)c1`: the pIC50 against Aromatase [1] is 6.42. Still for that read-out and setting: the value for `N#Cc1cc(Cn2cncn2)ccc1-c1ccccc1` was 8.34; that for `N#Cc1ccc(Cn2cncn2)cc1-c1ccccc1` was 9.70. In the case of `N#Cc1cc(Cn2cncn2)ccc1-c1ccc(OS(N)(=O)=O)c(Cl)c1`, the results for the pIC50 at Aromatase [1] and at Steryl-sulfatase were 6.24 and 7.54, respectively.

As to `N#Cc1ccc(Cn2cncn2)cc1-c1ccc(O)c(Cl)c1`, the inhibition in vivo at 1 mg/kg in the data set with Rattus norvegicus [7] amounted to 11%; in the data set on Rattus norvegicus [10], 5%. In addition, the “plasma estradiol (E2) level” value in the data set on Rattus norvegicus [9] was determined as 297 pg/mL. In the case of `CC(C)(C#N)c1cc(Cn2cncn2)cc(-c2ccc(OS(N)(=O)=O)cc2)c1`, the pIC50 at Aromatase [1] is 7.76; against Steryl-sulfatase, under 5.00. With `N#Cc1ccc(-c2ccc(O)cc2)cc1Cn1cncn1`, the inhibition (INH) on Aromatase [2] turned out to be 76.4%. For the same molecule, at 0.1 µM the inhibition against Aromatase [3] was 35.1%. In the case of `N#Cc1cc(Cn2cncn2)cc(-c2ccc(O)c(Cl)c2)c1`, on Aromatase [1], the pIC50 was 7.62. Regarding `N#Cc1ccc(Cn2cncn2)c(-c2ccc(OS(N)(=O)=O)c(Cl)c2)c1`, the pIC50 against Aromatase [1] is 8.72; against Steryl-sulfatase it was under 5.00. In the case of `CCCN1C(=O)CC2C3CCc4cc(OS(N)(=O)=O)ccc4C3CC[C@]2(C)C1=O` (stereo partly specified), the inhibition in vivo at 1 mg/kg with Rattus norvegicus [10] worked out at 99%. The molecule `N#Cc1cc(Cn2cncn2)ccc1-c1ccc(O)cc1` had a pIC50 on Aromatase [1] of 6.04. For the molecule `NS(=O)(=O)Oc1ccc(-c2cccc(Cn3cncn3)c2)cc1Cl`, the pIC50 is 7.15 on Aromatase [1] and 6.80 on Steryl-sulfatase. On to `N#Cc1ccc(-c2ccc(OS(N)(=O)=O)cc2)c(C#N)c1`, for which the pIC50 against Steryl-sulfatase is 7.79. On Aromatase [11], this molecule gave an inhibition at 10 µM of 47%. Take `NS(=O)(=O)Oc1ccc(-c2cccc(Cn3cncn3)c2)cc1`: the pIC50 is 6.56 at Aromatase [1] and 5.26 at Steryl-sulfatase. Turning to `N#Cc1ccc(Cn2cncn2)c(-c2ccccc2)c1`, on Aromatase [1], the pIC50 is 8.77. Take `N#Cc1ccc(N(Cc2ccc(OS(N)(=O)=O)c(Br)c2)n2cnnc2)cc1`: in the data set on Rattus norvegicus [8], the Activity result was “Non-toxic”.

The molecule `CC(C)(C#N)c1cc(Cn2cncn2)cc(-c2ccccc2)c1` gave a pIC50 at Aromatase [1] of 9.30.

`CC(C)(C#N)c1cc(Cn2cncn2)cc(-c2ccc(OS(N)(=O)=O)c(Cl)c2)c1`: the pIC50 at Aromatase [1] was 9.52. The molecule also showed an inhibition in [12] of 68.2%. In the case of `N#Cc1ccc(Cn2cncn2)cc1-c1ccc(OS(N)(=O)=O)cc1`, the pIC50 against Aromatase [1] was 8.70; on Steryl-sulfatase it was 7.46. Also, the values for the inhibition in vivo at 1 mg/kg in the data set on Rattus norvegicus [7] and in the data set on Rattus norvegicus [10] were 63% and 77%, respectively. The “plasma estradiol (E2) level” value with Rattus norvegicus [9] was 124 pg/mL. With `N#Cc1ccc(-c2cccc(OS(N)(=O)=O)c2)cc1Cn1cncn1`, the inhibition at 1 µM on Aromatase [2] (JEG-3, human) was found to be 63.4%. The same molecule showed a pIC50 on Steryl-sulfatase of under 5.00. For `N#Cc1ccc(-c2ccc(OS(N)(=O)=O)cc2)cc1Cn1cncn1`, the pIC50 against Aromatase [1] was 6.75; on Steryl-sulfatase it was 6.85. `CC(C)(C#N)c1cc(Cn2cncn2)cc(-c2ccc(O)c(Cl)c2)c1` gave a pIC50 at Aromatase [1] of 10.00.

Turning to `N#Cc1ccc(Cn2cncn2)c(-c2ccc(O)c(Cl)c2)c1`, the pIC50 on Aromatase [1] is 9.10. In turn, `Oc1ccc(-c2cccc(Cn3cncn3)c2)cc1` gave an inhibition (INH) against Aromatase [2] of 79%. Also, the inhibition at 0.1 µM on Aromatase [3] worked out at 24.6%. Molecule `N#Cc1cc(Cn2cncn2)cc(-c2ccccc2)c1` had a pIC50 at Aromatase [1] of 7.53.

As for `N#Cc1ccc(-c2ccccc2)cc1Cn1cncn1`, the inhibition (INH) against Aromatase [2] was found to be 68.8%. The molecule further returned an inhibition at 0.1 µM against Aromatase [3] of 23.9%. Take `c1ccc(-c2cccc(Cn3cncn3)c2)cc1`: the pIC50 at Aromatase [1] is 6.68.
